Laboratory results taken from patent publication US20030104443A1, “AFAP sequences, polypeptides, antibodies and methods” (University of West Virginia, priority 2001, published 2003).

Key:
[1] = system: AFAP-110 in C3H10T1/2 cells; assay: Phosphoamino acid analysis of AFAP-110 after PMA treatment; assay type: cell-based; conditions: 100 nM PMA, 15 min; relative to 4α-PDD treatment; densitometry
Method: (1, PKCα (0.5 μg); 2, PKCα (0.5 μg)+rAFAP-110 (10 μg); 3, rAFAP-110 (10 μg)). Data are representative of three experiments. […] C3H10T1/2 cells were serum-starved in phosphate-free media supplemented with radiolabeled ^32P-orthophosphate overnight and treated with 100 nM PMA, 100 nM 4α-PDD, or DMSO, the vehicle used. Cells were lysed after 15 min and AFAP-110 was immunoprecipitated using the antibody F1. Radiolabeled AFAP-110 was isolated by SDS-PAGE and subjected to phosphoamino acid analysis.
To test whether AFAP-110 could be phosphorylated in cells in response to PKC activation in vivo, serum-starved C3H10T1/2 fibroblasts labeled with ^32P-orthophosphate were stimulated with 100 nM PMA for 15 min to activate PKC. Cos-1 cells were maintained and transfected as previously described (Guappone and Flynn, 1997, supra). C3H10T1/2 cells were cultured as previously described (Qian et al., 2000, supra). Transient transfections of C3H10T1/2 cells were carried out using SuperFect (QIAGEN, Santa Clarita, Calif.) as previously described (Qian et al., 2000, supra).
Phosphoamino Acid Analysis C3H10T1/2 cells were grown to 60% confluence in 100-mm culture dishes, serum starved overnight, and then stimulated with 100 nM PMA or 100 nM 4α-PDD for 15 min. […] Relative intensity compared with background of radiation from spots was quantitated with ImageQuant software (Molecular Dynamics, Sunnyvale, Calif.).

[2] = system: C3H10T1/2 cells; assay: Immunofluorescence of actin structures after PMA treatment; assay type: cell-based
Method: For PKC activation with PMA, C3H10T1/2 cells were transfected with plasmids encoding AFAP-110. Twenty-four hours after transfections, the cells were serum starved overnight. PMA at 100 nM was used to activate PKC for 60 min. Cells were fixed and permeablized as previously described (Qian et al., 1998, supra). After washing, cells were labeled with BODIPY 650/665 phalloidin (Molecular Probes, Eugene, Oreg.) and 4C3 antibody for 20 min. Cells were washed again and then labeled with ALEXA 488 (Molecular Probes) for 25 min. Cells were washed and mounted on slides with Fluoromount (Fisher, Pittsburgh, Pa.). For serum induction experiments, C3H10T1/2 cells were serum starved overnight, and then serum-complete media was added. Cells on coverslips were washed and fixed at 15-min time points >2 h. Polyclonal antibody F1 and TRITC-labeled anti-rabbit secondary antibody were used to visualize endogenous AFAP-110, with washings as above. BODIPY 650/665 phalloidin was used to visualize actin. A Zeiss LSM 510 microscope (Thornwood, N.Y.) was used to gather images, which were recolored from grayscale. Scale bars were generated and inserted by LSM 510 software (Carl Zeiss, Thornwood, N.Y.).
Immunofluorescence labeling and imaging was carried out as described. C3H10T1/2 cells expressing AFAP-110 were treated with either 100 nM PMA (A1-A3) or 100 nM 4α-PDD (A4-A6) for 15 min after overnight serum starvation. AFAP-110 is represented in red (A1 and A4), whereas actin is represented in green (A2 and A5). (A3 and A6) Overlap images of AFAP-110 and actin. Arrows indicate colocalization of AFAP-110 with dynamic actin structures: white arrows, filopodia; gray arrows, lamellipodia; black arrows, actin filaments in the top panel and disrupted actin filaments/rosettes in the bottom panel. […] Immunofluorescence labeling and imaging were carried out as described in Experimental Procedures. C3H10T1/2 cells coexpressing GFP-AFAP-110 (B1) and myristoylated, Flag-tagged PKC were labeled to show Flag-tagged PKC (B2) and actin (B3). Arrows indicate colocalization of AFAP-110 with dynamic actin structures: white arrows label filopodia and black arrows label lamellipodia. […] Immunofluorescence labeling and imaging were carried out as described. C3H10T1/2 cells were transfected with pCMV-GFP-AFAP-110 (C1-C6) and pCMV-GFP-AFAP^Δ180-226 (C7-C9). PMA at 100 nM was used to stimulate the cells for 1 h. C1, C4, and C7; green GFP fusion protein images; C2, C5, and C8; X actin images; C3, C6, and C9, overlap images of GFP fusion protein and actin images.

[3] = system: actin filaments; assay: Confocal microscopy of rhodamine-phalloidin-labeled actin filaments; assay type: biochemical; conditions: 0.5 μM protein, 2 μM actin filaments; FIG. 13B
Source text: (§1) Binding constants were derived from the sedimentation of rAFAP-110 by actin. Accordingly, rAFAP-110 in the pellet and supernatant correspond to the bound and free rAFAP-110, respectively. The sum of densities of rAFAP-110 bands in the supernatant and pellet corresponds to the total mass of rAFAP-110 in the sample. The data representing the bound rAFAP-110 as a function of free rAFAP-110 were fit by nonlinear least squares to both the Langmuir (B=BMAX/(1+Kd/F)) and […] 2 μM F-actin filaments and different concentrations of rAFAP-110 in 5 mM MgCl2, 1 mM EGTA, 2 mM ATP, and 50 mM KCl at 20,800×g for 30 min at 4° C. After the centrifugation, both supernatant and pellets were analyzed by SDS-PAGE gel. Confocal microscopy assays were performed as described (Ishikawa et al., 1998, J. Biol. Chem., 273:26991-26997). Briefly, 2 μM F-actin containing 10% rhodamine-phalloidin-labeled F-actin were mixed with different concentrations of rAFAP-110 or other purified recombinant proteins in 5 mM MgCl2, 1 mM EGTA, 2 mM ATP, and 50 mM KCl at RT for 30 min. After the incubation, the reactions were applied between glass slides and coverslips and observed under confocal microscopy (Zeiss, Oberkochen, Germany). Samples for negative staining were adsorbed to grids coated with nitrocellulose and stabilized with carbon (Ernest F. Fullam, Latham, N.Y.). Unbound protein was removed by successive washes with buffer and water before staining with 1% uranylacetate (Cooper and Pollard, 1982, Methods Enzymol., 85(PtB), 182-210; Pollard and Cooper, 1982, Methods Enzymol., 85(PtB), 211-233).
To further test AFAP-110's capability to cross-link actin filaments, we analyzed rhodamine-phalloidin-labeled actin filaments for cross-linking by confocal microscopy. In FIG. 9A, purified rAFAP-110 or rAFAP-110^Δcterm were incubated with rhodamine-phalloidin-labeled actin filaments. […] 1, actin filaments only; 2, rAFAP-110 with actin filaments; 3, rAFAP-110^Δcterm with actin filaments. FIG. 9B presents confocal microscopy images. Different concentrations of α-actinin (top two panels, low=0.0625 μM and high=1.25 μM) and rAFAP-110 (bottom two panels, low=0.106 μM and high=2.1 μM) were incubated with rhodamine-phalloidin-labeled actin filaments. […] Actin filaments labeled with rhodamine-phalloidin appeared uniformly fluorescent in the absence of an actin binding protein (FIG. 9A1). […] Electron microscopy was used to confirm rAFAP-110's ability to cross-link actin filaments.

[4] = system: actin filaments; assay: Low-speed cosedimentation assay (20,800×g), actin filament cross-linking; assay type: biochemical; conditions: 0.5 μM protein, 2 μM actin filaments; FIG. 13A
Source text: as §1
Actin filaments are unable to efficiently pellet at 20,800×g unless cross-linked to form heavier particles (either isotropic networked or bundled actin filaments; Cooper and Pollard, 1982, supra; Pollard and Cooper, 1982, supra; Meyer et al., 1990, J. Cell. Biol. 110:2013-2024; Wachsstock et al., 1993, Biophys. J., 65: 205-214; Rybakova et al., 1996, J. Cell. Biol., 135:661-672). […] The purified recombinant proteins were incubated with actin filaments and then were centrifuged at 20,800×g. Both supernatants (S) and pellets (P) were applied to SDS-PAGE gel, followed by Coomassie staining. 1, rAFAP-110 with actin filaments; 2, rAFAP-110^Δcterm with actin filaments; 3, rAFAP-110 only; 4, rAFAP-110^Δcterm only; 5, actin filaments only. FIG. 8B is a graph of cross-linked actin filaments versus free rAFAP-110. rAFAP-110 at 0.05,0.11,0.21,0.43, 0.86, and 2.14 μM was incubated with the 2 μM concentration of G-actin polymerized into actin filaments. After the incubation, the reactions were centrifuged at 20,800×g. Both supernatants and pellets were applied to SDS-PAGE gel, followed by the Western blot analysis to detect rAFAP-110 and Coomassie blue staining to detect actin, respectively. The data of cross-linked actin filaments and free rAFA-110 were gathered by scanning densitometry of SDS-PAGE gel analysis.

[5] = after treatment with 100 nM PMA

Molecule | increase in phosphoserine of AFAP-110 [1] | increase in phosphothreonine of AFAP-110 [1] | time in which the changes occur ([2]; 100 nM PMA) | actin structures upon PMA treatment ([2]; 100 nM PMA, serum-starved cells expressing AFAP-110) | time by which cells completely reverted to quiescent phenotype [2, 5] | time by which changes largely revert [2, 5] | confocal fluorescence pattern of actin filaments [3] | ability to coprecipitate actin filaments compared with rAFAP-110 [4]
CCCCCCCCCCCCCC(=O)O[C@@H]1[C@@H](C)[C@@]2(O)[C@@H](C=C(CO)C[C@]3(O)C(=O)C(C)=C[C@@H]23)[C@@H]2C(C)(C)[C@]12OC(C)=O [PMA] | 3.9 fold | 5.7 fold | ≤ 15 min | Lamellipodia, filopodia, and rosettes appear | ≤ 6 h | ≤ 2 h |  | 
PKCα phosphorylated rAFAP-110: rAFAP-110 phosphorylated with recombinant PKCα (protein, UniProt Q90738 1-729, looked up, PKCalpha phosphorylated, rAFAP-110 phosphorylated with recombinant PKCα) Actin filament-associated …: MEELIVELRLFLELLDHEYLTSTVREKKAVITNILLRIQSSKGFEIKEHVQKPEVANSLPAPPQMPLPEIPQQWLPPDNGPPPLPTSSLPEGYYEEAVPVSPGKAPEYITSNYDSDAMSSSYESYDEEEEDGKGKKMRHQWPSEEASMDLVKDAKICAFLLRKKRFGQWTKLLCVIKENKLLCYKSSKDQQPQMELLLNDCSITYIPKDSKKKKHELKISHQGADALVLAVQSKEQAEQWLKVIKDVCSNCTGTVDSDGPLSSSPVHKTELEKKLSSERPSSDGEGAVENGITTVCNGKEQVKRKKSSKTEAKGTVTKVTGKKITKIIGLGKKKPSTDEQTSSAEEDVPTCGYLNVLSNNRWRERWCRVKDNKLIFHKDRTDLKTHIVSIPLRGCEVIPGLDSKHPLTFRLLRNGQEVAVLEASSSEDMGRWIGMLLAETGSSTDPGALHYDYIDVEMTASVIQAAKQTFCFMNRRVISTNPYRGSTANGYACPSGMALHYDDVPCINGSFKGKKPPATANGITGKVRTLNSQPKKPESVSCVKRTASNAEQYKYGKNRVEAVAKRLQSKEEELLKRKEALRNRLAQLRKERKDLRAAIEVNAGRKTQVILEDKLKKLEEECKTKEAERVNLELELTEVKESLKKALAGGITLGLAIEPKSGTSSPQSPIFKHRTLENSPISSCDTSDTECSIPVNSAAALKRPPSSNNSPCRGHVLRKAKEWEMKNGT |  |  |  |  |  |  | large aggregates of fluorescence | increased the ability of rAFAP-110 to coprecipitate actin filaments
